In article PMC6299220 (mBio, 2018):
Converted amounts (≈) assume the structure as drawn. “And” between values parts separate entries of the source, which are not always exact repeats. Identical values can stand only once. Like-named read-outs stand apart in the source and are kept apart here.

Key:
M. tuberculosis H37Rv = test: microbe, parasite or virus in culture; type: cell-based, Mycobacterium tuberculosis
[1] = Mouse liver microsomal (MLM) stability; details: for half-life: mouse, liver microsomes
KasA = KasA (Mycobacterium tuberculosis, UniProt P9WQD9); test: Microscale thermophoresis (MST) binding assay; details: 49.5 nM labeled KasA
[2] = tested on: mycolic acid biosynthesis in M. tuberculosis H37Rv; type: cell-based, Mycobacterium tuberculosis
[3] = mouse, microsomes
physchem = details: pH 7.4, aqueous buffer, kinetic from dmso stock
M. smegmatis = test: MIC, MABA; type: cell-based; details: Mycolicibacterium smegmatis; M. smegmatis wild-type
M. abscessus = test: MIC, MABA; type: cell-based; details: Mycobacteroides abscessus; M. abscessus ATCC wild type
M. avium = test: MIC, MABA; type: cell-based; details: Mycobacterium avium; M. avium ATCC wild type
M. fortuitum = test: MIC, MABA; type: cell-based; details: Mycolicibacterium fortuitum; M. fortuitum ATCC wild type
M. marinum = test: MIC, MABA; type: cell-based; details: Mycobacterium marinum; M. marinum ATCC wild type
[4] = tested on: iniBAC promoter (PiniBAC); type: cell-based, M. bovis BCG
[5] = tested on: M. tuberculosis 100-day-old bacilli (persisters); type: cell-based, Mycobacterium tuberculosis
[6] = tested on: M. tuberculosis H37Rv gene expression; type: cell-based, Mycobacterium tuberculosis
in vitro [7] = type: cell-based; details: mouse
Text: (§1) Supplement mbo006184230st8.docx, table 1: Table S3. Profile of DG167 | column: value

[8] = Chemical stability at pH 2, 7, 9; type: physicochemical; details: for half-life: buffer, read-out: Chemical stability t1/2
Text: as §1

in vitro [9] = type: in vitro ADME; details: for fraction unbound: plasma
Text: as §1

[10] = type: in vitro ADME
Text: as §1

CYP1A2 = CYP1A2 (Homo sapiens, UniProt P05177); test: biochemical; type: in vitro ADME
Text: as §1

CYP2C9 = CYP2C9 (Homo sapiens, UniProt P11712); test: biochemical; type: in vitro ADME
Text: as §1

CYP2D6 = CYP2D6 (Homo sapiens, UniProt P10635); test: biochemical; type: in vitro ADME
Text: as §1

CYP3A4 = CYP3A4 (Homo sapiens, UniProt P08684); test: biochemical; type: in vitro ADME
Text: as §1

CYP2C19 = CYP2C19 (Homo sapiens, UniProt P33261); test: Cytochrome P450 inhibition; type: in vitro ADME; details: read-out: Cytochrome P450 IC50, 2C19
hERG = hERG (Homo sapiens, UniProt Q12809); test: hERG inhibition
in vivo = details: female, BALB/c
Method: All animal experiments were approved by the Institutional Animal Care and Use Committee of the New Jersey Medical School, Rutgers University, and were conducted in compliance with their guidelines. […] Sequential bleeds were collected at 0.25, 0.5, 1, 3, 5, and 8 h postdose via the tail snip method. Blood (50 µl) was collected in capillary microvette EDTA blood tubes and kept on ice prior to centrifugation at 1,500 × g for 5 min. The supernatant (plasma) was transferred into a 96-well plate and stored at −80°C.
Chromatography was performed with an Agilent Zorbax SB-C8 column (2.1 by 30 mm; particle size, 3.5 µm) using a reverse-phase gradient elution. A mixture of 0.1% formic acid–Milli-Q deionized water was used for the aqueous mobile phase and 0.1% formic acid–acetonitrile (ACN) for the organic mobile phase. […] Extracts were subjected to vortex mixing for 5 min and centrifuged at 4,000 rpm for 5 min. The supernatants were analyzed by LC-MS. Verapamil IS was sourced from Sigma-Aldrich.

[11] = not given; remark: listed apart in the source
in vitro [12] = details: African green monkey
in vitro [13] = details: mouse, microsomes
in vitro [14] = details: human
M. bovis BCG = test: microbe, parasite or virus in culture; type: cell-based; details: Mycobacterium tuberculosis variant bovis BCG
M. tuberculosis 210 = test: microbe, parasite or virus in culture; type: cell-based; details: Mycobacterium tuberculosis
M. tuberculosis TDR692 = test: microbe, parasite or virus in culture; type: cell-based; details: Mycobacterium tuberculosis
M. tuberculosis = details: cited from earlier work
[15] = MLM stability t1/2 without NADPH, without NADPH

Chain of KasA (P9WQD9 whole entry): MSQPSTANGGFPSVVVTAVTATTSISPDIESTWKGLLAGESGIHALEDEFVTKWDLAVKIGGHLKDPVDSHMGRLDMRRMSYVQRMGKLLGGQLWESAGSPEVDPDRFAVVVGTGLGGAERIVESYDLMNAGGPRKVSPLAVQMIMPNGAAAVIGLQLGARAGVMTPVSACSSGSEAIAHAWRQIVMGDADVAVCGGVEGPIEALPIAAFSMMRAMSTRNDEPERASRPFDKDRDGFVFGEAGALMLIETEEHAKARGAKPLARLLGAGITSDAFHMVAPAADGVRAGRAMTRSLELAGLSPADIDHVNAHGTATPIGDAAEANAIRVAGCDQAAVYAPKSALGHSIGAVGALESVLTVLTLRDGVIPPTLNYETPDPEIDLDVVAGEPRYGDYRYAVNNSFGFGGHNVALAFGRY
Chain of CYP2C19 (P33261 whole entry, species assumed): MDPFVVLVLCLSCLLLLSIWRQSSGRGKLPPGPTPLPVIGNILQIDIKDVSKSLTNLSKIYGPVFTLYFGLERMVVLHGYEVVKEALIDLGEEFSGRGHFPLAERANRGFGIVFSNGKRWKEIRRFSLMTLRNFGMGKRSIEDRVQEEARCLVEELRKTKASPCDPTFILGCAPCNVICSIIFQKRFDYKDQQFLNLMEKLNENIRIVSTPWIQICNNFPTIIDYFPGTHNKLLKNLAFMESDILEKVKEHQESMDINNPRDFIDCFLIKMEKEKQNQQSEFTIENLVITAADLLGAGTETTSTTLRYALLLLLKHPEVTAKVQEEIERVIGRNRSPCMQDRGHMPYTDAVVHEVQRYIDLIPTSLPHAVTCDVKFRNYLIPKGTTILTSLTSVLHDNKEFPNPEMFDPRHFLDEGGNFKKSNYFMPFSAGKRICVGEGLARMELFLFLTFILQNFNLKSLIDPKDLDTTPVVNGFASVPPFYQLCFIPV
Chain of hERG (Q12809 whole entry): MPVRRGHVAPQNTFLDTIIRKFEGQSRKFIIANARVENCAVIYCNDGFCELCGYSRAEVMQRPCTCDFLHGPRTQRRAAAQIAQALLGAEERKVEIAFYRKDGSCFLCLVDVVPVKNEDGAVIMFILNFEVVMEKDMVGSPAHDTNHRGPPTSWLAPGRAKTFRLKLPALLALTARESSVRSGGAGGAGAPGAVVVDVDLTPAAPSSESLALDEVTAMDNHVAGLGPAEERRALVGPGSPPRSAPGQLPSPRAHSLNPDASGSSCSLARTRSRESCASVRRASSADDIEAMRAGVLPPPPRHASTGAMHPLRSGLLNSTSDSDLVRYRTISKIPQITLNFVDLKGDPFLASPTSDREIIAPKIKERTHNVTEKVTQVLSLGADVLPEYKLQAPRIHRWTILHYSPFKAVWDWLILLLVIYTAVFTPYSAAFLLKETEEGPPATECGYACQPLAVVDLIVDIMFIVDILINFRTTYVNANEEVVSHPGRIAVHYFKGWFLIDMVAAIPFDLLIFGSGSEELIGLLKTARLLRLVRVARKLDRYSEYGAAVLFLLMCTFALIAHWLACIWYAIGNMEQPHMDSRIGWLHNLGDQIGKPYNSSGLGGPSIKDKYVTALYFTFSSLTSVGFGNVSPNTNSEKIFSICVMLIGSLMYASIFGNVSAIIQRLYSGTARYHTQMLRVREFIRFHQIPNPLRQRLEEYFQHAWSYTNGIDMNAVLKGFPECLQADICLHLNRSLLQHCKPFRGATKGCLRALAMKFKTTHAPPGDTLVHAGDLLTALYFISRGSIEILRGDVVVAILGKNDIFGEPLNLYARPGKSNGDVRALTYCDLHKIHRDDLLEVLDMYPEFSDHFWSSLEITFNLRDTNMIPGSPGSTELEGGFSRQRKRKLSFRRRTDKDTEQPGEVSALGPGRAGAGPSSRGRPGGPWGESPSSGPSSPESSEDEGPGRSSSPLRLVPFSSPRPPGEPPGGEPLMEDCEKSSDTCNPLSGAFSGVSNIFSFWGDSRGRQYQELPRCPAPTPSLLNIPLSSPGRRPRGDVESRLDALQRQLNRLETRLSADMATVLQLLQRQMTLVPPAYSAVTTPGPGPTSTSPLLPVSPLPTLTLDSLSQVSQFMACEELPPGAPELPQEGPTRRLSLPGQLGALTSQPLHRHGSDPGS
Chain of CYP1A2 (P05177 whole entry): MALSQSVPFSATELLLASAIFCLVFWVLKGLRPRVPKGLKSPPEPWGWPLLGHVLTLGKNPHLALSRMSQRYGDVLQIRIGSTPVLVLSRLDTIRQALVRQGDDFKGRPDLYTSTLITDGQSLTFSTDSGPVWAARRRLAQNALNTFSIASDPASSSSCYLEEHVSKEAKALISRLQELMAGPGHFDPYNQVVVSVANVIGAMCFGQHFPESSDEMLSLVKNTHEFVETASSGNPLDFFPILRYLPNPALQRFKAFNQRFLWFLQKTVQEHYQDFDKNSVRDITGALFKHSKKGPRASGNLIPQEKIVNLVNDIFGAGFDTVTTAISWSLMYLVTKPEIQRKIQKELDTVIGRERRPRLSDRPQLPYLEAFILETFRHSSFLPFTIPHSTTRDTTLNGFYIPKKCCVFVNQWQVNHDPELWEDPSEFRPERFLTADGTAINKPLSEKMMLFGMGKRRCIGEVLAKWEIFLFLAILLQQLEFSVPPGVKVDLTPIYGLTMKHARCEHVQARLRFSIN
Chain of CYP2C9 (P11712 whole entry): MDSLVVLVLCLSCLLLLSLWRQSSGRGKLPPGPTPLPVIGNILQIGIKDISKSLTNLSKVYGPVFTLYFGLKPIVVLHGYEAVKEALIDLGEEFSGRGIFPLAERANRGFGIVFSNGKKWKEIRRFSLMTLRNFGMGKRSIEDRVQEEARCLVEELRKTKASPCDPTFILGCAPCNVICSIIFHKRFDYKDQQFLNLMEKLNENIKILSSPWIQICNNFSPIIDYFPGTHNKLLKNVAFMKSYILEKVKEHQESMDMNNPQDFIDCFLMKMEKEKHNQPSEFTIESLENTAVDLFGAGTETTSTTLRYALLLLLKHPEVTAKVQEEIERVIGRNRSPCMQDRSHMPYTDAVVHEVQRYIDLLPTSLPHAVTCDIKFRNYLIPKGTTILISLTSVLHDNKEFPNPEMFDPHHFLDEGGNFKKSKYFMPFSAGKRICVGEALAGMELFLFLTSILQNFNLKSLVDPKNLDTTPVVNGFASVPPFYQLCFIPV
Chain of CYP3A4 (P08684 whole entry): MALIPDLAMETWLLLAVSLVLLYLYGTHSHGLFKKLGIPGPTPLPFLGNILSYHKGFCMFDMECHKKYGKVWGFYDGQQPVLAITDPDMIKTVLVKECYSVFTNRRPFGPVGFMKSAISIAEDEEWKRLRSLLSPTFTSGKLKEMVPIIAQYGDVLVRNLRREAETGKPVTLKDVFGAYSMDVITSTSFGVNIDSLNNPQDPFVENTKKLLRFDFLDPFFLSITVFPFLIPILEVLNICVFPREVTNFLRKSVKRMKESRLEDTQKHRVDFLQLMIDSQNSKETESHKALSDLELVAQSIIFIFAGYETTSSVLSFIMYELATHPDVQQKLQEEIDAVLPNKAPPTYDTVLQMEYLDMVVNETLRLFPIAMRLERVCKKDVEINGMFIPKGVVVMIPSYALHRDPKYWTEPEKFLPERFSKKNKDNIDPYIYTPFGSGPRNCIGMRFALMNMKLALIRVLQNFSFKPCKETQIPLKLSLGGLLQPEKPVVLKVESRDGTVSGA
Chain of CYP2D6 (P10635 whole entry): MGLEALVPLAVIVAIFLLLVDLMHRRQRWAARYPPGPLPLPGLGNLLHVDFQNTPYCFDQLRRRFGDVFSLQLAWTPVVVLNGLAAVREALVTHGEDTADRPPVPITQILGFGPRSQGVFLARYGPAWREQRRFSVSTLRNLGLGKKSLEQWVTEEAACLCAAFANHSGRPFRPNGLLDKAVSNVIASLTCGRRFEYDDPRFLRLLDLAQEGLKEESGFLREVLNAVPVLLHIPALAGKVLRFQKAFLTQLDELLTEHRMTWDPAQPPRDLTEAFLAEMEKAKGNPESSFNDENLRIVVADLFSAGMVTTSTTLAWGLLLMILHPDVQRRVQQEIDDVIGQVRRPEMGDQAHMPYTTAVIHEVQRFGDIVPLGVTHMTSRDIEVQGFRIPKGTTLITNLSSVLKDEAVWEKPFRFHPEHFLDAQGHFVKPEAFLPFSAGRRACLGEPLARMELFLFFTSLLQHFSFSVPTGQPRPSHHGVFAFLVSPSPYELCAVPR

Question: Which MIC (M. tuberculosis H37Rv) does the source give for “1-Methyl-N-pentyl-1H-indazol-6-amine [5f]” here?
Answer: >100 µM

Question: And the “Kinetic solubility in pH 7.4 PBS” value?
Answer: >500 µM

Question: What about the MLM stability clint ([1]; Table 3) of the same molecule?
Answer: 56.7 μl/mi/mg protein

Question: What about the “MLM stability t1/2” value ([1]; with NADPH) of the same molecule?
Answer: 12.2 min

Question: And the “MLM stability t1/2 without NADPH” value ([1]; without NADPH)?
Answer: > 3,060 min

Question: Which MIC (M. tuberculosis H37Rv) does the source give for `CCCCS(=O)(=O)Nc1ccc2cn[nH]c2c1` [5a-2, N-(1H-Indazol-6-yl)butane-1-sulfonamide] here?
Answer: >100 µM

Question: What about the MIC (M. tuberculosis H37Rv; Mycobacterium tuberculosis, H37RV) of the same molecule?
Answer: > 100 µM

Question: What about the EC50 (KasA) of the same molecule?
Answer: 1.74 µM

Question: What about the “inhibition of mycolic acid biosynthesis” value [2] of the same molecule?
Answer: did not show any inhibition

Question: What about the MLM stability clint [3] of the same molecule?
Answer: 68.7 μl/mi/mg protein

Question: And the solubility kinetic (physchem)?
Answer: > 600 µM

Question: And the half-life ([1]; MLM stability t1/2, with NADPH)?
Answer: 12.2 min

Question: What about the half-life [1, 15] of the same molecule?
Answer: > 3060 min

Question: Which results are given for `CCCCS(=O)(=O)Nc1ccc2cnn(C)c2c1` [DG167, N-(1-Methyl-1H-indazol-6-yl)butane-1-sulfonamide]?
Answer: MIC (M. smegmatis): > 50 µM; MIC (M. abscessus): > 50 µM; MIC (M. avium): > 50 µM; MIC (M. fortuitum): > 50 µM; MIC (M. marinum): > 50 µM; induction of iniBAC promoter [4]: approximately 12 fold; EC50 (KasA): 0.131 ± 0.0182 µM; inhibition of mycolic acid biosynthesis [2]: dose-dependent inhibition; killing of persister cultures [5]: minimal killing; expression of the kasA, kasB, and acpM genes and the iniBAC operon [6]: strongly induced expression; CC50 (in vitro [7]): 94 µM; half-life ([8]; pH 2): 192 h; half-life ([8]; pH 9): 57.8 h; Chemical stability t1/2 ([8]; pH 7): Stable; recovery (in vitro [9]; human): 92%; fraction unbound (in vitro [9]; human): 0.081; recovery (in vitro [9]; mouse): 90.7%; fraction unbound (in vitro [9]; mouse): 0.21; Human plasma stability at 5 h [10]: 109%; Mouse plasma stability @ 5 h [10]: 99.1%; IC50 (CYP1A2): > 50 µM; IC50 (CYP2C9): > 50 µM; IC50 (CYP2D6): > 50 µM; IC50 (CYP3A4): > 50 µM; IC50 (CYP2C19): 12 µM and 12.4 µM; IC50 (hERG): > 20 µM; AUC(0-t) (in vivo; mouse, in vivo, iv, 5 mg/kg): 1750 ng·h/mL; half-life (in vivo; mouse, in vivo, iv, 5 mg/kg): 19.8 min; AUC(0-t) (in vivo; mouse, in vivo, po, 25 mg/kg): 8080 ng·h/mL; bioavailability (in vivo; plasma, po, 25 mg/kg): 92.3%; MLM stability clint [3]: 68.9 μl/mi/mg protein; MLM-generated metabolites [3]: A demethylated species, corresponding to loss of the 1-methyl group (Fig. S5A), predominated among the metabolites; tolerability, dose escalation ([11]; mice, 50 and 100 mg/kg, monitored for 8 h): well tolerated; dose tolerability for 5 days ([11]; mice, 5 days, DG167 50 and 100 mg/kg, combination DG167 100 mg/kg with INH 25 mg/kg): did not show any behavioral changes or weight loss; tolerability, dose escalation ([11]; mouse, in vivo): heavy breathing, hunched posture, and decreased activity; CC50 (in vitro [12]): 23 µM; half-life (in vitro [13]): 10.1 min; microsomal CLint (in vitro [13]): 68.9 µL/min/mg; half-life (in vitro [13]; [15]): > 300 min; solubility kinetic (physchem): 324 µM (≈ 86.6 µg/mL); Papp (in vitro [14]; Caco-2, Caco-2 Permeability PA-B): 71.8 ×10⁻⁶ cm/s; Papp (in vitro [14]; Caco-2, Caco-2 Permeability PB-A): 45.6 ×10⁻⁶ cm/s

Question: With `NNC(=O)c1ccncc1` [INH, isoniazid] as the molecule, how does the MIC (M. bovis BCG) read?
Answer: 0.4 µM (≈ 0.0549 µg/mL)

Question: What about the MIC (M. tuberculosis 210) of the same molecule?
Answer: 0.4 µM (≈ 0.0549 µg/mL)

Question: And the MIC (M. tuberculosis TDR692)?
Answer: 0.2 µM (≈ 0.0274 µg/mL)

Question: And the MIC (M. smegmatis)?
Answer: > 12 µM

Question: And the MIC (M. abscessus)?
Answer: > 12 µM

Question: What about the MIC (M. avium) of the same molecule?
Answer: > 12 µM

Question: And the MIC (M. fortuitum)?
Answer: > 12 µM

Question: What about the MIC (M. marinum) of the same molecule?
Answer: > 12 µM

Question: What about the “killing of persister cultures” value [5] of the same molecule?
Answer: minimal killing

Question: And the “Fold change, Rv0885” value [6]?
Answer: 2.044 fold

Question: And the “Fold change, Rv2706c” value [6]?
Answer: 2.3 fold

Question: And the “Fold change, Rv3269” value [6]?
Answer: -2.076 fold

Question: And the “Fold change, Rv3352c” value [6]?
Answer: 2.131 fold

Question: What about the “Fold change, ctpD” value [6] of the same molecule?
Answer: 2.334 fold

Question: What about the “Fold change, cysA3” value [6] of the same molecule?
Answer: -2.027 fold

Question: And the “Fold change, fadD5” value [6]?
Answer: -2.2153 fold

Question: What about the “Fold change, fadD11” value [6] of the same molecule?
Answer: -2.252 fold

Question: And the “Fold change, lprQ” value [6]?
Answer: 2.051 fold

Question: And the “Fold change, sapM” value [6]?
Answer: 2.01 fold

Question: And the “expression of the kasA, kasB, and acpM genes and the iniBAC operon” value [6]?
Answer: strongly induced expression

Question: Which “whole-cell activity in M. tuberculosis” value (M. tuberculosis) does the source give for `CC12C[C@@]34C=CC(=O)[C@@](C)(CCC(=O)Nc5c(O)ccc(C(=O)O)c5O)C3[C@H](CC1C4)O2` (some centres unmarked) [platensimycin] here?
Answer: 27 µM

Question: For `C=C/C(C)=C/[C@@]1(C)SC(=O)C(C)=C1O` [thiolactomycin], which “whole-cell activity in M. tuberculosis” value (M. tuberculosis) is on record?
Answer: 142 µM
